According to ChEMBL document CHEMBL5104197, “Structure-Based Optimization of Coumestan Derivatives as Polyketide Synthase 13-Thioesterase(Pks13-TE) Inhibitors with Improved hERG Profiles for Mycobacterium tuberculosis Treatment” (J Med Chem, 2022):
In brackets after ≈: the same amount, converted by molar mass.

How the values were obtained:
[1] = system: Polyketide synthase Pks13 (Mycobacterium tuberculosis (strain ATCC 25618 / H37Rv)), I6X8D2 [N1640S]; test: Binding affinity to Mycobacterium tuberculosis Pks13-TE N1640S mutant expressed in Escherichia coli BL21(DE3) pLysS assessed as change in melting temperature at 1:5 compound to protein ratio by nanoDSF thermal stability analysis
[2] = system: Polyketide synthase Pks13 (Mycobacterium tuberculosis (strain ATCC 25618 / H37Rv)), I6X8D2 [N1640S]; test: Binding affinity to Mycobacterium tuberculosis Pks13-TE N1640S mutant expressed in Escherichia coli BL21(DE3) pLysS assessed as change in melting temperature at 1:10 compound to protein ratio by nanoDSF thermal stability analysis
[3] = system: Polyketide synthase Pks13 (Mycobacterium tuberculosis (strain ATCC 25618 / H37Rv)), I6X8D2 [N1640K]; test: Binding affinity to Mycobacterium tuberculosis Pks13-TE N1640K mutant expressed in Escherichia coli BL21(DE3) pLysS assessed as change in melting temperature at 1:5 compound to protein ratio by nanoDSF thermal stability analysis
[4] = system: Polyketide synthase Pks13 (Mycobacterium tuberculosis (strain ATCC 25618 / H37Rv)), I6X8D2 [N1640K]; test: Binding affinity to Mycobacterium tuberculosis Pks13-TE N1640K mutant expressed in Escherichia coli BL21(DE3) pLysS assessed as change in melting temperature at 1:10 compound to protein ratio by nanoDSF thermal stability analysis
[5] = system: Mycobacterium tuberculosis; type: functional, Vero; settings: V2475, 168 h, time 7 day
[6] = system: Mycobacterium tuberculosis; type: functional, Vero; settings: KZN494, 168 h, time 7 day
[7] = system: Mycobacterium tuberculosis; type: functional, Vero; settings: TF274, 168 h, time 7 day
[8] = system: Mycobacterium tuberculosis; type: functional, Vero; settings: R506, 168 h, time 7 day

SMILES	ΔTm [1] [°C]	ΔTm [2] [°C]	ΔTm [3] [°C]	ΔTm [4] [°C]	MIC90 [5] [µg/mL]	MIC90 [6] [µg/mL]	MIC90 [7] [µg/mL]	MIC90 [8] [µg/mL]
O=c1oc2cc(O)ccc2c2oc3ccc(O)c(CN4CC[C@H](F)C4)c3c12	6.9	7.9	–	–	–	–	–	–
O=c1oc2cc(O)ccc2c2oc3ccc(O)c(CN4CCCCC4)c3c12	11.4	10.5	0.8	0.9	–	–	–	–
O=c1oc2cc(O)ccc2c2oc3ccc4c(c3c12)CN(CC1CC1)CO4	8.6	9.3	0.2	0.1	–	–	–	–
COc1ccc2c(c1)oc(=O)c1c2oc2ccc(O)c(CN3CCC(F)(F)CC3)c21	1.9	1.7	–	–	–	–	–	–
O=c1oc2cc(O)ccc2c2oc3ccc(O)c(CN4CCC(F)CC4)c3c12	8.7	9.6	1.5	1	0.125 (≈ 0.326 µM)	0.0625 (≈ 0.163 µM)	0.0625 (≈ 0.163 µM)	0.0625 (≈ 0.163 µM)
O=c1oc2cc(O)ccc2c2oc3ccc4c(c3c12)CN(C1CCCC1)CO4	10.1	10.9	0.3	0.1	0.0039 (≈ 0.0103 µM)	0.0039 (≈ 0.0103 µM)	0.0039 (≈ 0.0103 µM)	0.0039 (≈ 0.0103 µM)
